The target in the assay is T1, ERα (Homo sapiens, UniProt P03372).
T1 construct: MCF-7 (ATCC; Cat. No.: HTB-22), a Luminal A breast cancer cell; culture medium EMEM; host or cells: MCF-7
T1 sequence (P03372 1-595): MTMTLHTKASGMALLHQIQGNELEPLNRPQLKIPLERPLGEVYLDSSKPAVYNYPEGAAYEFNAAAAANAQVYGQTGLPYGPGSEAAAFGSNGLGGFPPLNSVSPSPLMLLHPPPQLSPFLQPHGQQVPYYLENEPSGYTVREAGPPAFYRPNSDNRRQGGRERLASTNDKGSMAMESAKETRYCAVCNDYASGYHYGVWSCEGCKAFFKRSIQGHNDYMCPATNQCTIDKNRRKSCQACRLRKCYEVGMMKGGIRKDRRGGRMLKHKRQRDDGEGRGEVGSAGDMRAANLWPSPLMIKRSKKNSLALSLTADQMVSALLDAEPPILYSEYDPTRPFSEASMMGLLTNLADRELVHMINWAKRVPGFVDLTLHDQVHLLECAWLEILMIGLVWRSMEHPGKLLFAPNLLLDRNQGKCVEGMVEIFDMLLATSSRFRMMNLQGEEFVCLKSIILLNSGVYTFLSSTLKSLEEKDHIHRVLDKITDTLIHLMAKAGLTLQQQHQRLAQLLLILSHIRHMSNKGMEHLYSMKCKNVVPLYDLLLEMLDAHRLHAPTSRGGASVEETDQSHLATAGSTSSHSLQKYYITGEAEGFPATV
In words: iELISA of ER degradation in MCF-7 cells (Effect Example 1). The conditions noted are these: MCF-7 iELISA, processing time 4 hours, starting concentration 1 μM; for Dmax: MCF7; for DC50: read-out: DC50 (drug concentration corresponding to 50% protein degradation). Format: cell-based. From the text: 1. Cell Line • Breast cancer cell line and its culture medium: • MCF-7 (ATCC; Cat. No.: HTB-22), a Luminal A breast cancer cell; culture medium EMEM.
2. Reagents • Culture medium EMEM (Gibco, 1964507) • Fetal bovine serum (Gibco, 10091148) • Penicillin-streptomycin double antibody (Gibco, S110JV) • DPBS (Gibco, 14190-144) • CellTiter-Glo® assay kit (Promega, G7573) • Trypsin (0.25%) (Gibco, 25200-056) • DMSO (Sigma, D2650)
3. Instruments • Biosafety cabinet (AIRTECH, BSC-1300A II) • Automated cell counter (Life Technologies, countess II) • Multifunctional microplate reader (Biotek, H1FM) • Orbital shaker (Hangzhou Allsheng Instruments Co., Ltd., OS-100) • XLFIT 5.3 (Inforstack Shanghai Co., Ltd.)
For this test method, the following experiments were performed in a biosafety cabinet, with the specific steps as follows: • (1) On the first day, cells were inoculated in a 96-well plate, the previous culture medium was poured off, 5 mL of DPBS was added to wash the cells, and then DPBS was pipetted and discarded. 1 mL of trypsin (0.25%) was then added. The plate was digested in a 37° C., 5% CO2 cell incubator for about 2 to 5 minutes and then taken out. A new corresponding culture medium was added, and pipetted up and down to resuspend the cells evenly. The cells were then counted using an automated cell counter. • (2) Each cell was inoculated in columns 1 to 12 of a 96-well plate (Corning, Cat. No.: 356690) at a density of 30,000 cells per well in 100 μL of culture medium. The plate was then placed in a 37° C., 5% CO2 incubator for 24 hours. • (3) On the second day, the compound of the present disclosure was 4-fold serially diluted to 10 dose points starting at 1 μM. 10 μL of the serially diluted compound was pipetted and added to 100 μL of cells in columns 1 to 10, and 10 μL of the corresponding culture medium containing 0.33 v % DMSO was added to both columns 11 and 12. The plate was incubated in a 37° C., 5% CO2 incubator for 4 hours (Note: column 11 was used as a MIN well without compound and primary antibody but with secondary antibody; column 12 was used as a MAX well without compound but with primary antibody and secondary antibody). • (4) The culture medium was then removed. The cells were washed once with 100 µL of DPBS, and fixed with 100 μL of 1 v % formaldehyde (CST; Cat. No.: 12606) fixative at room temperature for 30 minutes. • (5) The fixative was removed. The cells were washed once with 100 μL of DPBS, and permeabilized with 100 μL of 80 v % pre-cooled methanol (Jiazu-chemical; Cat. No.: 67-56-1) at 4° C. for 15 minutes. • (6) Methanol was removed, and the cells were washed once with 100 μL of DPBS. The plate was added with 100 μL of primary antibody (1:5000, a volume ratio of primary antibody to BSA; manufacturer of primary antibody: Invitrogen, Cat. No.: MA5-14501), and incubated at 4° C. overnight. • (7) Primary antibody was removed, and the cells were washed three times with […] of DPBS. The plate was added with 100 μL of secondary antibody (1:2500, a volume ratio of secondary antibody to BSA; manufacturer of secondary antibody: Univ, Cat. No.: abs20002), and incubated at room temperature for 1 hour. • (8) Secondary antibody was removed, and the cells were washed three times with […] of DPBS. The plate was added with 100 μL of tetramethylbenzidine (TMB) (CST; Cat. No.: 7004), and incubated at room temperature for 1 hour. • (9) The plate was added with 100 μL of stop buffer (CST; Cat. No.: 7002), and incubated at room temperature for 10 minutes. The OD450 signal value was detected with a multifunctional microplate reader, and finally, the degradation effect of the compound of the present disclosure on ER was plotted by XLFIT software, and the DC50 value of the compound of the present disclosure (drug concentration corresponding to 50% protein degradation) was calculated; Dmax=[(the highest level of ERα−the lowest level of ERα)/(the highest level of ERα)].

Each structure is given as a SMILES string.

Take `CCN(CCOc1ccc(Oc2c(-c3ccc(S(C)(=O)=O)cc3)ccc3cc(O)ccc23)cc1)CC(=O)N1CCN(c2ccc3c(c2)C(=O)N(C2CCC(=O)NC2=O)C3=O)CC1` (centres unmarked) [Compound D8, 2-(2,6-dioxopiperidin-3-yl)-5-(4-(N-ethyl-N-(2-(4-((6-hydroxy-2-(4-(methylsulfonyl)phenyl)naphthalen-1-yl)oxy)phenoxy)ethyl)glycyl)piperazin-1-yl)isoindoline-1,3-dione]: the Dmax was determined as 43%.

For `C[C@@H]1CN(CCOc2ccc(Oc3c(-c4ccc(S(C)(=O)=O)cc4)ccc4cc(O)ccc34)cc2)[C@@H](C)CN1CCOCC(=O)N1CCN(c2ccc3c(c2)CN(C2CCC(=O)NC2=O)C3=O)CC1` (stereo partly drawn) [Compound D9, 3-(5-(4-(2-(2-((2R,5S)-4-(2-(4-((6-hydroxy-2-(4-(methylsulfonyl)phenyl)naphthalen-1-yl)oxy)phenoxy)ethyl)-2,5-dimethylpiperazin-1-yl)ethoxy)acetyl)piperazin-1-yl)-1-oxoisoindolin-2-yl)piperidine-2,6-dione], the Dmax was 48%. On the same count and under the same terms, the figure for `CS(=O)(=O)c1ccc(-c2ccc3cc(O)ccc3c2Oc2ccc(N3CCN(CCCCCOCC(=O)N4CCN(c5ccc6c(c5)CN(C5CCC(=O)NC5=O)C6=O)CC4)CC3)cc2)cc1` (centres unmarked) [Compound D11, 3-(5-(4-(2-((5-(4-(4-((6-hydroxy-2-(4-(methylsulfonyl)phenyl)naphthalen-1-yl)oxy)phenyl)piperazin-1-yl)pentyl)oxy)acetyl)piperazin-1-yl)-1-oxoisoindolin-2-yl)piperidine-2,6-dione] is 40%. As to `C[C@@H]1CN(CCOCC(=O)N2CCN(c3ccc4c(c3)C(=O)N(C3CCC(=O)NC3=O)C4=O)CC2)[C@@H](C)CN1CCOc1ccc(Oc2c(-c3ccc(S(C)(=O)=O)cc3)ccc3cc(O)ccc23)cc1` (stereo partly drawn) [Compound D15, 2-(2,6-dioxopiperidin-3-yl)-5-(4-(2-(2-((2S,5R)-4-(2-(4-((6-hydroxy-2-(4-(methylsulfonyl)phenyl)naphthalen-1-yl)oxy)phenoxy)ethyl)-2,5-dimethylpiperazin-1-yl)ethoxy)acetyl)piperazin-1-yl)isoindoline-1,3-dione], the Dmax stood at 60% and the DC50 was 7.6 nM. `CS(=O)(=O)c1ccc(-c2ccc3cc(O)ccc3c2Oc2ccc(OCCOCCOCCOCCN3CCN(c4ccc5c(c4)C(=O)N(C4CCC(=O)NC4=O)C5=O)CC3)cc2)cc1` (centres unmarked) [Compound D19]: the Dmax came to 47%. On to `CS(=O)(=O)c1ccc(-c2ccc3cc(O)ccc3c2Oc2ccc(OCCOCCOCCOCCN3CCN(c4ccc5c(c4)C(=O)N(C4CCC(=O)NC4=O)C5)CC3)cc2)cc1` (centres unmarked) [Compound D21], for which the Dmax amounted to 69% and the DC50 was found to be 7.5 nM. Regarding `CS(=O)(=O)c1ccc(-c2ccc3cc(O)ccc3c2Oc2ccc(OCCOCCOCCN3CCN(c4ccc5c(c4)C(=O)N(C4CCC(=O)NC4=O)C5)CC3)cc2)cc1` (centres unmarked) [Compound D22, 3-(6-(4-(2-(2-(2-(4-((6-hydroxy-2-(4-(methylsulfonyl)phenyl)naphthalen-1-yl)oxy)phenoxy)ethoxy)ethoxy)ethyl)piperazin-1-yl)-1-oxoisoindolin-2-yl)piperidine-2,6-dione], the greatest degradation seen (Dmax) amounted to 54% and the DC50 is 4.9 nM. The compound `CCN(CCOCCOCCN1CCN(c2ccc3c(c2)C(=O)N(C2CCC(=O)NC2=O)C3=O)CC1)CCOc1ccc(Oc2c(-c3ccc(S(C)(=O)=O)cc3)ccc3cc(O)ccc23)cc1` (centres unmarked) [Compound D28, 2-(2,6-dioxopiperidin-3-yl)-5-(4-(2-(2-(2-(ethyl(2-(4-((6-hydroxy-2-(4-(methylsulfonyl)phenyl)naphthalen-1-yl)oxy)phenoxy)ethyl)amino)ethoxy)ethoxy)ethyl)piperazin-1-yl)isoindoline-1,3-dione] registered a Dmax of 34%. The same measure, in the same setting: the figure for `CS(=O)(=O)c1ccc(-c2ccc3cc(O)ccc3c2Oc2ccc(OCCOCCOCCN3CCN(c4ccc5c(c4)CN(C4CCC(=O)NC4=O)C5=O)CC3)cc2)cc1` (centres unmarked) [Compound D30] is 35%; for `CCN(CCCCCN(C)CC(=O)N1CCN(c2ccc3c(c2)C(=O)N(C2CCC(=O)NC2=O)C3=O)CC1)CCOc1ccc(Oc2c(-c3ccc(S(C)(=O)=O)cc3)ccc3cc(O)ccc23)cc1` (centres unmarked) [Compound D31, 2-(2,6-dioxopiperidin-3-yl)-5-(4-(N-(5-(ethyl(2-(4-((6-hydroxy-2-(4-(methylsulfonyl))phenyl)naphthalen-1-yl)oxy)phenoxy)ethyl)aminopentyl)-N-methylglycyl)piperazin-1-yl)isoindoline-1,3-dione] it is 35%; for `CCN(CCOc1ccc(Oc2c(-c3ccc(S(C)(=O)=O)cc3)ccc3cc(O)ccc23)cc1)C(=O)c1ccc(CCC2CCN(C3CCN(c4ccc5c(c4)C(=O)N(C4CCC(=O)NC4=O)C5=O)CC3)CC2)cc1` (centres unmarked) [Compound D34, 4-(2-(1′-(2-(2,6-dioxopiperidin-3-yl)-1,3-dioxoisoindolin-5-yl)-[1,4′-bipiperidin]-4-yl)ethyl)-N-ethyl-N-(2-(4-((6-hydroxy-2-(4-(methylsulfonyl)phenyl)naphthalen-1-yl)oxy)phenoxy)ethyl)benzamide] it is 45%. The same measure, in the same setting: the result for `CS(=O)(=O)c1ccc(-c2ccc3cc(O)ccc3c2Oc2ccc(OCCOCCOCCOCCOc3ccc4c(c3)C(=O)N(C3CCC(=O)NC3=O)C4)cc2)cc1` (centres unmarked) [Compound D35, 3-(6-(2-(2-(2-(2-(4-((6-hydroxy-2-(4-(methylsulfonyl)phenyl)naphthalen-1-yl)oxy)phenoxy)ethoxy)ethoxy)ethoxy)ethoxy)-1-oxoisoindolin-2-yl)piperidine-2,6-dione] reads 32%. As for `CS(=O)(=O)c1ccc(-c2ccc3cc(O)ccc3c2Oc2ccc(OCCCCN3CCN(c4ccc5c(c4)CN(C4CCC(=O)NC4=O)C5=O)CC3)cc2)cc1` (centres unmarked) [Compound D59, 3-(5-(4-(4-(4-((6-hydroxy-2-(4-(methylsulfonyl)phenyl)naphthalen-1-yl)oxy)phenoxy)butyl)piperazin-1-yl)-1-oxoisoindolin-2-yl)piperidine-2,6-dione], the Dmax came to 67% and the DC50 is 0.5 nM.

Broadly, the Dmax is the greatest extent of degradation seen. Read a low Dmax as shallow degradation.

The values above are taken from US20240131168A1, “NAPHTHALENE RING-CONTAINING COMPOUND, PHARMACEUTICAL COMPOSITION CONTAINING SAME, AND USE THEREOF” (JIANGSU YAHONG MEDITECH CO., LTD., priority 2021, published 2024).
